{"source": "patent US20030229114A1", "about": "“Pyrroloquinoline quinone drugs as a neuroprotectant and methods of use thereof” (priority 2002, published 2003)", "tested_on": "cultured rat forebrain neurons", "assay": "Assay of intracellular ATP in neuronal cultures (firefly luciferase)", "format": "cell-based", "method": "Medium was not subsequently changed.\nExperiments were carried out exclusively in EBSS. […] PQQ was directly dissolved in EBSS.\nThe Bioluminescent Somatic Cell Assay kit from Sigma (catalog No. FL-ASC) was used for assay of ATP as previously described (Rosenberg et al., 2000). At selected time points after addition of drug or vehicle, medium was removed, and then replaced with 200 μl of cell lysis agent. After brief agitation, the medium was transferred to microcentrifuge tubes that contained 200 μl of water. The tubes were placed on wet ice until assay. ATP assay mix was used at 25-fold dilution, and 100 μl of the extract was assayed.", "note": "Several values for one entry are separate records, joined by “and”; a condition that tells them apart may be missing. Equal values may be shown once. Entries after “also recorded” stand apart in the source; their conditions may differ."}
{"smiles": "O=C(O)c1cc(C(=O)O)c2c(n1)C(=O)C(=O)c1cc(C(=O)O)[nH]c1-2", "note": "[PQQ, Pyrroloquinoline quinone]", "values": [{"measurement": "Effect on ATP depletion caused by nitric oxide donors", "setting": "PQQ 100 μM, DEA/NO, DPT/NO 1 mM", "result": "did not block; also recorded: no effect"}, {"measurement": "Effect on ATP depletion caused by ONOO−", "setting": "PQQ 100 μM, ONOO− 100 μM", "result": "no effect"}, {"measurement": "Effect on ATP depletion induced by SIN-1", "setting": "PQQ 100 μM, SIN-1 1 mM, 1 hr", "result": "significantly blocked"}, {"measurement": "Intracellular ATP", "setting": "of control values, 1 hr ONOO− 100 μM with PQQ 100 μM", "result": "42±5.4% and 43.8±4.7%"}, {"measurement": "Intracellular ATP", "setting": "of control values, 1 hr SIN-1 1 mM with PQQ 100 μM", "result": "84.4±13.9% and 93±12.6%"}, {"measurement": "Intracellular ATP", "setting": "one hour, DEA/NO 1 mM in the presence of PQQ 100 μM", "result": "42.9±19.6", "unit": "%"}, {"measurement": "Intracellular ATP", "setting": "one hour, DPT/NO 1 mM in the presence of PQQ 100 μM", "result": "72.7±7.9", "unit": "%"}]}
